In patent US5462926A (Biomeasure, Inc., priority 1993, dated 1995):
Where a SMILES comes first, the peptide text is derived from it. Bridges are numbered along the chain shown (N, C = ends). [ ]: non-standard residue; d: D form. 2Nal = N[C@@H](Cc1ccc2ccccc2c1)C(=O)O; d2Nal = N[C@H](Cc1ccc2ccccc2c1)C(=O)O

Molecular target: T1, NMB receptors on C-6 cells (Rattus norvegicus, UniProt P24053)
T1 construct: endogenous in cells; host or cells: rat glioblastoma C-6 cells
T1 sequence (P24053 1-390): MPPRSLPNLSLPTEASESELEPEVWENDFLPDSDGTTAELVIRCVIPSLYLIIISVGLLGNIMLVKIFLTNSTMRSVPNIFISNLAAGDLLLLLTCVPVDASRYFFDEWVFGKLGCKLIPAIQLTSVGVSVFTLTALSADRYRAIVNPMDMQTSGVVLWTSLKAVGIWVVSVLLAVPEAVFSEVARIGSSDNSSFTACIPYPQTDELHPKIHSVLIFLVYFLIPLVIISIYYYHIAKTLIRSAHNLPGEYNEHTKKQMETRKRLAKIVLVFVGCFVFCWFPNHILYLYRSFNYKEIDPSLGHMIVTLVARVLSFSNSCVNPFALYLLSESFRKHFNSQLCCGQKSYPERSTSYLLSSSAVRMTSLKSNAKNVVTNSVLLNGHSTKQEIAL
Assay: Binding of 125I-[D-Tyr0]NMB to C-6 glioblastoma cells
Settings: Ki by Cheng method, read-out: Ki 125I-NMB Binding, NMB Receptor, C-6 Cells
Experimental: Binding of ^125 I-[D-Tyr^0 ]NMB to C-6 glioblastoma and NMB-R transfected cells
Binding studies using rat glioblastoma C-6 or NMB-R transfected cells were performed as described previously [Benya, R. V. et al. Mol. Pharmacol. 42:1058 (1992); and Wang, L-H. et al. Biochem. J. 286:641 (1992)] by suspending disaggregated cells in binding buffer, which was composed of standing buffer ([…], 7.7 mM KCl, 1.0 mM EGTA, 0.02% soybean trypsin inhibitor) additionally containing 50 mM HEPES, 1 mM MgCl2, 1.5 mM CaCl2, 2.2 mM KH2 PO4, 0,015% glutamine, and 0.2% BSA (w/v) (pH 7.4). Incubations contained 75 pM ^125 I-[D-Tyr^0 ]NMB and 15×10^6 C-6 cells/ml or 2×10^6 NMB-R transfected cells/ml, for 60 min at 22° C. Nonsaturable binding of ^125 I-[D-Tyr^0 ]NMB was the amount of radioactivity associated with C-6 cells or NMB-R transfected cells when the incubation mixture contained […] NMB. Nonsaturable binding was<15% of total binding in all experiments; all values are reported herein as saturable binding (i.e., total minus nonsaturable binding).

With CC(C)[C@@H]1NC(=O)[C@H](CCCCN)NC(=O)[C@@H](Cc2c[nH]c3ccccc23)NC(=O)[C@H](Cc2ccc(O)cc2)NC(=O)[C@@H](NC(=O)[C@H](N)Cc2ccc3ccccc3c2)CSSC[C@@H](C(=O)N[C@H](Cc2ccc3ccccc3c2)C(N)=O)NC1=O [Analog #8, H2 -D-Nal-Cys-Tyr-D-Trp-Lys-Val-Cys-D-Nal-NH2] (H-[d2Nal]CY[dW]KVC[d2Nal]-NH2; disulfide 2-7) the Ki was 670 ± 73 nM.
Work on CC(C)[C@@H]1NC(=O)[C@H](CCCCN)NC(=O)[C@@H](Cc2c[nH]c3ccccc23)NC(=O)[C@H](Cc2ccc(O)cc2)NC(=O)[C@@H](NC(=O)[C@@H](N)Cc2ccc3ccccc3c2)CSSC[C@@H](C(=O)N[C@H](Cc2ccc3ccccc3c2)C(N)=O)NC1=O [Analog #9, H2 -Nal-Cys-Tyr-D-Trp-Lys-Val-Cys-D-Nal-NH2] (H-[2Nal]CY[dW]KVC[d2Nal]-NH2; disulfide 2-7) yielded a Ki of 1160 ± 214 nM.
Work on CC(C)[C@@H]1NC(=O)[C@H](CCCCN)NC(=O)[C@@H](Cc2c[nH]c3ccccc23)NC(=O)[C@H](Cc2ccc(O)cc2)NC(=O)[C@@H](NC(=O)[C@H](N)Cc2ccc3ccccc3c2)CSSC[C@H](C(=O)N[C@@H](Cc2ccc3ccccc3c2)C(N)=O)NC1=O [Analog #11, H2 -D-Nal-Cys-Tyr-D-Trp-Lys-Val-D-Cys-Nal-NH2] (H-[d2Nal]CY[dW]KV[dC][2Nal]-NH2; disulfide 2-7) yielded a Ki of 1740 ± 345 nM.
CC(C)[C@@H]1NC(=O)[C@H](CCCCN)NC(=O)[C@@H](Cc2c[nH]c3ccccc23)NC(=O)[C@H](Cc2ccc(O)cc2)NC(=O)[C@H](NC(=O)[C@H](N)Cc2ccc3ccccc3c2)CSSC[C@@H](C(=O)N[C@@H](Cc2ccc3ccccc3c2)C(N)=O)NC1=O [Analog #10, H2 -D-Nal-D-Cys-Tyr-D-Trp-Lys-Val-Cys-Nal-NH2] (H-[d2Nal][dC]Y[dW]KVC[2Nal]-NH2; disulfide 2-7) gave a Ki of 1150 ± 518 nM.
CC(C)[C@@H]1NC(=O)[C@H](Cc2c[nH]cn2)NC(=O)[C@@H](Cc2c[nH]c3ccccc23)NC(=O)[C@H](Cc2ccc(O)cc2)NC(=O)[C@@H](NC(=O)[C@H](N)Cc2ccc3ccccc3c2)CSSC[C@@H](C(=O)N[C@@H](Cc2ccc3ccccc3c2)C(N)=O)NC1=O [Analog #14] (H-[d2Nal]CY[dW]HVC[2Nal]-NH2; disulfide 2-7; N-terminus assumed) showed a Ki of 4940 ± 930 nM.
With CC(C)[C@@H]1NC(=O)[C@H](CCCCN)NC(=O)[C@@H](Cc2c[nH]c3ccccc23)NC(=O)[C@H](Cc2ccc(O)cc2)NC(=O)[C@@H](NC(=O)[C@H](N)Cc2ccccc2)CSSC[C@@H](C(=O)N[C@@H](Cc2ccc3ccccc3c2)C(N)=O)NC1=O [Analog #4, H2 -D-Phe-Cys-Tyr-D-Trp-Lys-Val-Cys-Nal-NH2] (H-[dF]CY[dW]KVC[2Nal]-NH2; disulfide 2-7) the Ki was 848 ± 191 nM.
For CC(C)[C@@H]1NC(=O)[C@H](CCCCN)NC(=O)[C@@H](Cc2c[nH]c3ccccc23)NC(=O)[C@H](Cc2ccc(O)cc2)NC(=O)[C@@H](NC(=O)[C@H](N)Cc2c[nH]c3ccccc23)CSSC[C@@H](C(=O)N[C@@H](Cc2ccc3ccccc3c2)C(N)=O)NC1=O [Analog #12, H2 -D-Trp-Cys-Tyr-D-Trp-Lys-Val-Cys-Nal-NH2] (H-[dW]CY[dW]KVC[2Nal]-NH2; disulfide 2-7), the Ki was 1780 ± 109 nM.
With C[C@@H](O)[C@@H]1NC(=O)[C@H](CCCCN)NC(=O)[C@@H](Cc2c[nH]c3ccccc23)NC(=O)[C@H](Cc2ccc(O)cc2)NC(=O)[C@@H](NC(=O)[C@H](N)Cc2ccccc2)CSSC[C@@H](C(=O)N[C@@H](Cc2ccc3ccccc3c2)C(N)=O)NC1=O [Analog #7, H2 -D-phe-Cys-Tyr-D-Trp-Lys-Thr-Cys-Nal-NH2] (H-[dF]CY[dW]KTC[2Nal]-NH2; disulfide 2-7) the Ki was 1450 ± 78 nM.
